A value given as a limit tells only on which side of the number the result lay.

In series [1] the test system is normal human dermal fibroblast cultures. In words: In vitro measurement of the production of hyaluronic acid in fibroblast cultures. Conditions: 5 days of incubation; for effect on the amount of extracellular hyaluronic acid (in words): 0.01% and 0.1% (w/v). The series is classed as cell-based. As to the method: B—In Vitro Measurement of the Effect of the Polyol-Glycosides According to the Invention on the Production of Hyaluronic Acid
To confirm the moisturizing activity of the polyol-glycosides according to the invention, the effect of these products on the amount of hyaluronic acid was measured. It is in fact known that hyaluronic acid is a major non-sulfated glycosaminoglycan which plays an essential role in moisturizing the skin, by means of its ability to attach up to 1000 times its weight in water.
The amount of hyaluronic acid is measured in normal human dermal fibroblast cultures.
The cells are incubated for 5 days in the presence of the test products solubilized in the incubation medium.
At the end of this incubation, the extracellular media, into which the hyaluronic acid is secreted, are removed.
The hyaluronic acid is stained with a specific dye, STAINS ALL ((1-ethyl-2-[3-(1-ethylnaphtho[1,2-d]thiazolin-2-ylidene)-2-methylpropenyl]naphtho[1,2-d]thiazolium) bromide, provided by Sigma), which interacts with the hyaluronic acid to produce a change of absorption spectrum between 620 and 660 nm, observed by means of a spectrophotometer. A standard range of hyaluronic acid is effected in parallel.
The polyols and the polyol-glucosides are tested in aqueous solution at 0.01% and 0.1% (w/v).
D0: seeding of the fibroblasts (24-well culture plates, 15 300 cells/well);
D3: incubation of the products tested, diluted in the fibroblast incubation medium;
D8: removal of the fibroblast incubation media, assaying of the hyaluronic acid.
At the end of the 5 days of incubation in the presence of the products, the incubation media are removed and incubated in the presence of STAINS ALL. The colorimetric reaction is visualized by adding water.
The quantification is carried out by spectrophotometry for a wavelength of 630 nm.
A standard range of hyaluronic acid (0 to 12.5 μg/ml) is effected in parallel.
The results are expressed in μg/ml of extracellular hyaluronic acid.
The results which were obtained, expressed as percentage increase in the amount of extracellular hyaluronic acid relative to the control group, are reported in the following table: […]

For a further series, the system named is human skin explant. The series is described as follows: In vitro measurement of the synthesis of epidermal ceramides in human skin explant model. The series is classed as cell-based. The conditions noted are these: for effect on the neosynthesis of ceramides 1 and 2 (in words): 24 hours on human skin explants; for percentage increase in the amount of ceramide 1 relative to the control group / percentage increase in the amount of ceramide 2 relative to the control group: topical 3% in cream gel (EGF 10 ng/ml in culture medium), 24 hours, 14C-acetate labeling. As to the method:
C—In Vitro Measurement of the Xylityl Glucoside According to the Invention on the Synthesis of Epidermal Ceramides
The study is carried out in vitro in a human skin explant model. The products, formulated at 3% in a cream gel, are applied to the surface of the skin explants for 24 hours. The neosynthesis of the epidermal lipids is studied by radioactive labeling (carbon 14-labeled acetate) of the neosynthesized lipids, followed by thin layer chromatography to separate the various types of lipids and in particular the ceramides.
The xylityl glucoside according to example 1 of the invention, formulated at 3% in a cream gel comprising 2% of Sepigel® 305, 5% of Lanol 99, and qs of water.
Epidermal growth factor (EGF), known to increase the synthesis of ceramides, which constitutes a reference molecule for this test. The EGF is tested at 10 ng/ml in the skin explant culture medium.
A commercially available formulation containing lactic acid, which constitutes a reference for the test, lactic acid being known to increase the synthesis of ceramides.
The study is carried out on disks of human skin originating from cosmetic surgery (abdominoplasty, person). Disks 8 mm in diameter are produced using a hole punch and deposited onto culture inserts placed in culture wells containing an appropriate nutritive medium (MEM/M199 medium (¾, ¼, v/v) supplemented with penicillin (50 IU/ml, streptomycin (50 μg/ml), sodium bicarbonate (0.2% w/v), serum (2% v/v) and carbon 14-labeled acetate (1 μCi/ml)).
The products are tested by topical application (except for the EGF) for 24 hours.
At the end of the 24 hours of incubation, the skin explants are rinsed with phosphate buffered saline. For each disk of skin, the dermis is dissociated from the epidermis by controlled heat shock (1 min at 70° C.). The epidermal lipids are extracted by a partition between an organic phase (methanol/chloroform (1:2)) and an aqueous phase (0.25 M potassium chloride). The organic phase is then evaporated under vacuum and the residue is taken up in a chloroform/methanol (2:1) mixture.
The various epidermal lipids are then separated by thin layer chromatography (silica 60): chloroform/acetone/methanol (38:2:10); chloroform/acetone/methanol (40:5:5); chloroform/ethyl acetate/diethyl ether/methanol (36:10:3:1). The radioactivity of the fractions thus separated is counted with a radioactivity analyzer (Storm, Amersham).
The results are expressed as % variation relative to the control group.

Series [2] relates to skin (epidermis) in a normal volunteer. In words: In vivo measurement of the moisturization of the skin with Hydrascan. On the set-up: species or system human. The conditions noted are these: for Degree of moisturization of the skin measured with Hydrascan, Cycle 1: stratum corneum + superficial epidermis / Degree of moisturization of the skin measured with Hydrascan, Cycle 2: superficial + middle epidermis / Degree of moisturization of the skin measured with Hydrascan, Cycle 3: entire epidermis: percentage increase relative to placebo zone, topical 20 mg/cm2, 8 h after application, mean of six volunteers; for Degree of moisturization of the skin measured with Hydrascan, Cycle 1: stratum corneum + superficial epidermis / Degree of moisturization of the skin measured with Hydrascan, Cycle 2: superficial + middle epidermis / Degree of moisturization of the skin measured with Hydrascan, Cycle 3: entire epidermis / effect on the degree of moisturization of the epidermis (in words): 3% in cream gel; for effect on the degree of moisturization of the epidermis (in words): 8 h after application. As for the experimental part: A-In Vivo Measurement of the Moisturization of the Skin in a Normal Volunteer by Means of […] effect on the degree of moisturization of the skin of various polyol-glycosides according to the invention, of glyceryl glucoside and of various polyols was measured and compared in humans. […] This device comprises a micro-effusimeter connected to a flexible sensor and makes it possible to produce a thermal wave which propagates within the epidermis, and to register the variation in temperature during the pulse. […] 5% (weight/volume) of Lanol® 99 (isononyl isononanoate); 0.5% (weight/volume) of […]® HB (phenoxy-ethanol, methyl-, ethyl-, propyl-, butylparaben). A cream gel having the same composition but containing no test product is used as a placebo. The study is carried out on three groups of six volunteers, as a double-blind study, i.e. neither the experimenter nor the volunteer knows the identity of the test product. The following four skin zones are defined on the forearms of each volunteer: The products are applied topically at a rate of 20 mg/cm^2, the measurements being carried out 8 h after application. […] The degree of moisturization is measured by means of […]®, on each skin zone defined above, the values obtained for each of the three cycles being recorded and expressed as percentage increase in moisturization of the skin relative to the zone treated with the placebo.

The next series relates to skin. In words: Evaluation on the skin of acute skin irritation (Primary Cutaneous Irritation index). Format: in vivo. Conditions: for PCI index: Primary Cutaneous Irritation index; for Irritation classification: scale of the protocol in Journal Officiel de la République Francaise of Feb. 21, 1982. As for the experimental part: The skin tolerance of the various polyol-glycosides was evaluated by means of a study of “evaluation on the skin of acute skin irritation”, carried out by an independent pharmaceutical and cosmetic consultancy-expertise company.
The Primary Cutaneous Irritation (PCI) index measurements, carried out according to the same protocol, are contained in the following table:
Each compound studied is classified, in view of the results obtained under the selected experimental conditions, nonirritant for the skin, with reference to the scale proposed in the protocol described in the Journal Officiel de la République Francaise [Official Journal of the French Republic] of Feb. 21, 1982.

Take `OCC(O)CO` [Glycerol, glycerol]: the “effect on the amount of extracellular hyaluronic acid (in words)” value (“effect on the amount” below) in series [1] is listed as “no effect”. In the series on human skin explant, the “effect on the neosynthesis of ceramides 1 and 2 (in words)” value (from here on “effect on the neosynthesis”) is “not observed”.
As for “Glyceryl Glucoside [Comparative example]”, the “effect on the amount” value in series [1] is “does not increase”. Moreover, in series [1] (concentration 0.01% (w/v)), the “percentage increase in the amount of extracellular hyaluronic acid relative to the control group” value is <10%. Moreover, the “percentage increase in the amount of extracellular hyaluronic acid relative to the control group” value in series [1] (concentration 0.1% (w/v)) was <10%. Also, in series [2], the “Degree of moisturization of the skin measured with Hydrascan, Cycle 1: stratum corneum + superficial epidermis” value (shortened to “Degree … stratum corneum + superficial epidermis”) is recorded as <5%; the “Degree of moisturization of the skin measured with Hydrascan, Cycle 2: superficial + middle epidermis” value (“Degree … superficial + middle epidermis” for short) is <5%; the “Degree of moisturization of the skin measured with Hydrascan, Cycle 3: entire epidermis” value (shortened to “Degree of moisturization … entire epidermis”) is listed as <5%. Also, in the series with skin, the PCI index was found to be 0 and the Irritation classification entry is “Nonirritant”.
Turning to `OC[C@@H](O)[C@@H](O)CO` [Erythritol, erythritol], the “effect on the amount” value in series [1] was “no effect”. Further, the “percentage increase in the amount of extracellular hyaluronic acid relative to the control group” value in series [1] (concentration 0.01% (w/v)) was <10%. Besides, in series [1] (concentration 0.1% (w/v)), the “percentage increase in the amount of extracellular hyaluronic acid relative to the control group” value is on record as <10%. In series [2], the “Degree … stratum corneum + superficial epidermis” value is reported as “+9%”; the “Degree … superficial + middle epidermis” value is given as “+9%”; the “Degree of moisturization … entire epidermis” value is “+9%”.
Take `OC[C@@H](O)[C@H](O)[C@@H](O)CO` [Xylitol, xylitol]: in series [1], the “effect on the amount” value is given as “no effect”. Also, the “percentage increase in the amount of extracellular hyaluronic acid relative to the control group” value in series [1] (concentration 0.01% (w/v)) is given as <10%. Moreover, the “percentage increase in the amount of extracellular hyaluronic acid relative to the control group” value in series [1] (concentration 0.1% (w/v)) is <10%. For the same molecule, in series [2], the “effect on the degree of moisturization of the epidermis (in words)” value (from here on “effect on the degree”) is on record as “no effect”; the “Degree … stratum corneum + superficial epidermis” value is on record as <5%; the “Degree … superficial + middle epidermis” value is recorded as <5%; the “Degree of moisturization … entire epidermis” value is <5%.
In the case of `O=C[C@H](O)[C@@H](O)[C@H](O)CO` [Xylose, xylose], in series [2], the “effect on the degree” value is on record as “no moisturizing effectiveness”; the “Degree … stratum corneum + superficial epidermis” value is listed as <5%; the “Degree … superficial + middle epidermis” value is reported as <5%; the “Degree of moisturization … entire epidermis” value is listed as <5%.
Xylityl Glucoside [Example 1]: in series [1], the “effect on the amount” value is given as “increase”. Besides, the “percentage increase in the amount of extracellular hyaluronic acid relative to the control group” value in series [1] (concentration 0.01% (w/v)) is recorded as “+158%”. Moreover, the “percentage increase in the amount of extracellular hyaluronic acid relative to the control group” value in series [1] (concentration 0.1% (w/v)) is “+161%”. Further, in the series with human skin explant, the “effect on the neosynthesis” value is reported as “significantly increases”; the “percentage increase in the amount of ceramide 1 relative to the control group” value is listed as 295.7%; the “percentage increase in the amount of ceramide 2 relative to the control group” value turned out to be 236.5%. Besides, in series [2], the “effect on the degree” value is given as “very substantially increases”; the “Degree … stratum corneum + superficial epidermis” value is “+28%”; the “Degree … superficial + middle epidermis” value is listed as “+33%”; the “Degree of moisturization … entire epidermis” value was “+30%”. In series [2] (difference to glycerol across the epidermal layers), the “increase in degree of moisturization greater than that obtained with glycerol” value is listed as 14 to 20%. In the series on skin, the PCI index was determined as 0 and the Irritation classification result is on record as “Nonirritant”.
Erythrityl Glucoside [Example 2]: the “percentage increase in the amount of extracellular hyaluronic acid relative to the control group” value in series [1] (concentration 0.01% (w/v)) was “+64%”. Further, the “percentage increase in the amount of extracellular hyaluronic acid relative to the control group” value in series [1] (concentration 0.1% (w/v)) was <10%. For the same molecule, in series [2], the “Degree … stratum corneum + superficial epidermis” value is “+18%”; the “Degree … superficial + middle epidermis” value was “+11%”; the “Degree of moisturization … entire epidermis” value is “+12%”. Also, in the series on skin, the PCI index is 0 and the Irritation classification result is listed as “Nonirritant”.
In the case of “EGF: Epidermal growth factor, known to increase the synthesis of ceramides, reference molecule for this test”, in the series with human skin explant, the “effect on the neosynthesis” value was “act, but less effectively”; the “percentage increase in the amount of ceramide 1 relative to the control group” value was 166.1%; the “percentage increase in the amount of ceramide 2 relative to the control group” value is recorded as 152.3%.

The record behind these values is patent publication US8088742B2, “Polyol-glycoside compositions for the skin” (Societe d'Exploitation de Produits pour les Industries …, priority 2002, dated 2012).
